SMILES strings stand for the structures. ≈ marks a conversion by molar mass, not a printed value. Calls of active or inactive are those of the source. No cut-off for these calls is given here. *1 amine or outer side, *2 acyl side, *3 side chain or, on linkers, in order; H or OH if unused. Where a SMILES comes first, the peptide text is derived from it. [ ]: non-standard residue; d: D form. AzaAla = CN(N[*:1])C(=O)[*:2]; Lac = C[C@H](O)C(=O)O

One test has as its target T1, Pancreatic elastase (Sus scrofa) (UniProt P08419+P00772). Kind of test: Reversible inhibition of porcine pancreatic elastase assessed as enzyme recovery by sephadex G-25 rapid passage assay. In kind it is protein assay.
Turning to `CC(=O)N1CCC[C@H]1C(=O)N[C@@H](C)C(=O)N1CCC[C@H]1C(=O)NN(C)C(=O)OC(C)C(N)=O` (mixture of isomers), the inhibition result was “Active”.

The target of a further test is Pancreatic elastase (Sus scrofa, UniProt P08419+P00772). Kind of test: Noncompetitive inhibition of porcine pancreatic elastase using Ac-Ala-Ala-Pro-Ala-p-nitroanilide as substrate by Dixon plot analysis. In kind it is protein assay.
For the molecule `CC(=O)N[C@@H](C)C(=O)N[C@@H](C)C(=O)N1CCC[C@H]1C(=O)NN(C)C(=O)O[C@@H](C)C(N)=O`, the Ki stood at 5 ×10⁻⁷ M.

As for `CC(=O)N1CCC[C@H]1C(=O)N[C@@H](C)C(=O)N1CCC[C@H]1C(=O)NN(C)C(=O)OC(C)C(N)=O` (mixture of isomers), the Ki is 4.5 ×10⁻⁷ M.

In turn, `CNC(=O)[C@H](C)OC(=O)N(C)NC(=O)[C@@H]1CCCN1C(=O)[C@H](C)NC(=O)[C@H](C)NC(C)=O` gave a Ki of 6.5 ×10⁻⁷ M.

In turn, `CC(=O)N[C@@H](C)C(=O)N[C@@H](C)C(=O)N1CCC[C@H]1C(=O)NN(C)C(=O)O[C@@H](C)C(=O)Nc1ccccc1` had a Ki of 4.5 ×10⁻⁷ M.

On to `CC(=O)N[C@@H](C)C(=O)N[C@@H](C)C(=O)N1CCC[C@H]1C(=O)NN(C)C(=O)O[C@@H](C)C(=O)NCc1ccccc1`, for which the Ki was 8.5 ×10⁻⁷ M.

As for `CC(=O)N[C@@H](C)C(=O)N[C@@H](C)C(=O)N1CCC[C@H]1C(=O)NN(C)C(=O)O[C@@H](C)C(=O)NN`, the Ki is 6.5 ×10⁻⁷ M.

Another test concerns the target T1, Pancreatic elastase (Sus scrofa). Kind of test: Activity at porcine pancreatic elastase assessed as compound hydrolysis at 1 mg incubated at room temperature after 5 mins by TLC analysis. Type of test: protein assay.
Take `CCOC(=O)[C@H](C)OC(=O)[C@H](C)NC(=O)[C@@H]1CCCN1C(=O)[C@H](C)NC(=O)[C@@H]1CCCN1C(C)=O` (Ac-PAPA[Lac]-OEt): the outcome was Active.

As for `CCOC(=O)[C@H](C)OC(=O)[C@H](C)NC(=O)[C@@H]1CCCN1C(=O)[C@H](C)NC(=O)[C@H](C)NC(C)=O` (Ac-AAPA[Lac]-OEt), the result was Active.

The target is the same in the next test. Description: Reversible inhibition of porcine pancreatic elastase assessed as enzyme recovery. In kind it is protein assay.
Turning to `CC(=O)N1CCC[C@H]1C(=O)N[C@@H](C)C(=O)N1CCC[C@H]1C(=O)NN(C)C(=O)OC(C)C(N)=O` (mixture of isomers), the inhibition result was “inactive”.

The next test has the same target. Kind of test: Activity at porcine pancreatic elastase assessed as compound hydrolysis at 1 mg incubated at room temperature up to 24 hrs by TLC analysis. In kind it is protein assay.
Consider `CC(=O)N1CCC[C@H]1C(=O)N[C@@H](C)C(=O)N1CCC[C@H]1C(=O)NN(C)C(=O)OC(C)C(N)=O` (mixture of isomers), for which the result was inactive.

Turning to `CCOC(=O)[C@H](C)OC(=O)N(C)NC(=O)[C@@H]1CCCN1C(=O)[C@H](C)NC(=O)[C@H](C)NC(C)=O`, the result was inactive.

A further test deals with T2, Neutrophil elastase (Homo sapiens) (UniProt P08246).
T2 sequence (whole entry): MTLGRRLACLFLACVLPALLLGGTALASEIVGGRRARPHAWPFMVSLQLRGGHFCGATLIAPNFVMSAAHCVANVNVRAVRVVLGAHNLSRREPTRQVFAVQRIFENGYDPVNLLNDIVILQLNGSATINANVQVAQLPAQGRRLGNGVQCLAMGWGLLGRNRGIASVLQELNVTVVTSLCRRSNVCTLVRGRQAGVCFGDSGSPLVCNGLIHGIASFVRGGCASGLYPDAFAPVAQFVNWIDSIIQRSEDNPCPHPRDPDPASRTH
Description: Inhibition of human granulocyte elastase assessed as Ac-Ala-Ala-Pro-Ala-p-nitroanilide conversion to p-nitroaniline by spectrophotometric analysis
For the molecule `CC(=O)N[C@@H](C)C(=O)N[C@@H](C)C(=O)N1CCC[C@H]1C(=O)NN(C)C(=O)O[C@@H](C)C(=O)N(C)N`, the ID50 was found to be 50 µg/mL (≈ 106 µM).

For another test, the target named is T1, Pancreatic elastase (Sus scrofa). Kind of test: Inhibition of porcine pancreatic elastase assessed as Ac-Ala-Ala-Pro-Ala-p-nitroanilide conversion to p-nitroaniline by spectrophotometric analysis. Type of test: protein assay.
Regarding `CCOC(=O)N(C)NC(=O)[C@@H]1CCCN1C(=O)[C@H](C)NC(=O)[C@H](C)NC(C)=O`, the ID50 amounted to 20 µg/mL (≈ 50.1 µM).

`CCOC(=O)[C@H](Cc1ccccc1)NC(=O)[C@H](C)OC(=O)N(C)NC(=O)[C@@H]1CCCN1C(=O)[C@H](C)NC(=O)[C@H](C)NC(C)=O`: the ID50 was 2 µg/mL (≈ 3.23 µM).

For the molecule `CCOC(=O)N(C)NC(=O)[C@@H]1CCCN1C(=O)[C@H](C)NC(=O)[C@@H]1CCCN1C(C)=O`, the ID50 stood at 60 µg/mL (≈ 141 µM).

As to `CC(=O)N[C@@H](C)C(=O)N[C@@H](C)C(=O)N1CCC[C@H]1C(=O)NN(C)C(=O)O[C@@H](C)C(=O)OCc1ccccc1`, the ID50 stood at 0.5 µg/mL (≈ 0.937 µM).

For `CCOC(=O)N(C)NC(=O)[C@H](C)NC(C)=O`, the inhibition entry is “inactive”.

For the molecule `CC(=O)N[C@@H](C)C(=O)N[C@@H](C)C(=O)N1CCC[C@H]1C(=O)NN(C)C(=O)O[C@@H](C)C(N)=O`, the ID50 amounted to 0.4 µg/mL (≈ 0.904 µM).

Regarding `CCOC(=O)[C@H](C)OC(=O)[C@H](C)OC(=O)N(C)NC(=O)[C@@H]1CCCN1C(=O)[C@H](C)NC(=O)[C@H](C)NC(C)=O`, the ID50 is 1.5 µg/mL (≈ 2.76 µM).

As to `CCOC(=O)C(C)OC(=O)N(C)NC(=O)[C@@H]1CCCN1C(=O)[C@H](C)NC(=O)[C@@H]1CCCN1C(C)=O` (stereo partly drawn), the ID50 stood at 4.5 µg/mL (≈ 9.04 µM).

As for `CCOC(=O)[C@H](C)OC(=O)[C@H](C)OC(=O)[C@@H]1CCCN1C(=O)[C@H](C)NC(=O)[C@@H]1CCCN1C(C)=O` (Ac-PAP[Lac][Lac]-OEt), the ID50 was 167 µg/mL (≈ 336 µM).

As for `CC(=O)N1CCC[C@H]1C(=O)N[C@@H](C)C(=O)N1CCC[C@H]1C(=O)NN(C)C(=O)OC(C)C(N)=O` (mixture of isomers), the ID50 is 0.3 µg/mL.

As for `CCOC(=O)[C@H](C)OC(=O)N(C)NC(=O)[C@H](CC(C)C)NC(=O)[C@H](C)NC(=O)[C@H](C)NC(C)=O`, the ID50 came to 9 µg/mL (≈ 18.5 µM).

As to `CNC(=O)[C@H](C)OC(=O)N(C)NC(=O)[C@@H]1CCCN1C(=O)[C@H](C)NC(=O)[C@H](C)NC(C)=O`, the ID50 amounted to 0.4 µg/mL (≈ 0.876 µM).

In the case of `CCOC(=O)[C@H](C)OC(=O)N(C)NC(=O)[C@H](CC(C)C)NC(=O)[C@H](C)NC(=O)[C@@H]1CCCN1C(C)=O`, the ID50 turned out to be 15 µg/mL (≈ 29.2 µM).

In the case of `CCOC(=O)[C@H](C)OC(=O)N(C)NC(=O)[C@@H]1CCCN1C(=O)[C@H](C)NC(=O)[C@H](C)NC(C)=O`, the ID50 came out at 1 µg/mL (≈ 2.12 µM).

For `CC(=O)N[C@@H](C)C(=O)N[C@@H](C)C(=O)N1CCC[C@H]1C(=O)NN(C)C(=O)O[C@@H](C)C(=O)Nc1ccccc1`, the ID50 was 0.4 µg/mL (≈ 0.771 µM).

For `CCOC(=O)[C@H](C)OC(=O)[C@H](C)OC(=O)N(C)NC(=O)[C@@H]1CCCN1C(=O)[C@H](C)NC(=O)[C@@H]1CCCN1C(C)=O`, the ID50 amounted to 1.5 µg/mL (≈ 2.63 µM).

As to `C[C@H](NC(=O)OCc1ccccc1)C(=O)N[C@@H](C)C(=O)N1CCC[C@H]1C(=O)NN(C)C(=O)Oc1ccc([N+](=O)[O-])cc1`, the ID50 worked out at 1 µg/mL (≈ 1.71 µM).

On to `CCOC(=O)[C@H](C)NC(=O)N(C)NC(=O)[C@@H]1CCCN1C(=O)[C@H](C)NC(=O)[C@H](C)NC(C)=O` (Ac-AAP[AzaAla]A-OEt), for which the ID50 amounted to 100 µg/mL (≈ 213 µM).

On to `CCOC(=O)[C@H](C)OC(=O)[C@H](C)OC(=O)[C@@H]1CCCN1C(=O)[C@H](C)NC(=O)[C@H](C)NC(C)=O` (Ac-AAP[Lac][Lac]-OEt), for which the ID50 turned out to be 33 µg/mL (≈ 70 µM).

As for `CCOC(=O)[C@H](C)NC(=O)N(C)NC(=O)[C@@H]1CCCN1C(=O)[C@H](C)NC(=O)[C@@H]1CCCN1C(C)=O` (Ac-PAP[AzaAla]A-OEt), the inhibition entry was “inactive”.

As for `CC(=O)N[C@@H](C)C(=O)N[C@@H](C)C(=O)N1CCC[C@H]1C(=O)NN(C)C(=O)O[C@@H](C)C(=O)O`, the ID50 is 110 µg/mL (≈ 248 µM).

As to `CC(=O)N[C@@H](C)C(=O)N[C@@H](C)C(=O)N1CCC[C@H]1C(=O)NN(C)C(=O)O[C@@H](C)C(=O)NCc1ccccc1`, the ID50 came out at 0.3 µg/mL (≈ 0.563 µM).

For the molecule `CCOC(=O)NNC(=O)[C@@H]1CCCN1C(=O)[C@H](C)NC(=O)[C@H](C)NC(=O)OC(C)(C)C`, the inhibition entry was “inactive”.

Consider `CCOC(=O)N(C)NC(=O)[C@@H]1CCCN1C(=O)[C@H](C)NC(=O)[C@H](C)NC(=O)OC(C)(C)C`, for which the ID50 was determined as 90 µg/mL (≈ 197 µM).

Turning to `CCOC(=O)[C@H](C)OC(=O)N(C)NC(C)=O`, the inhibition result is “inactive”.

For `CCOC(=O)NNC(=O)[C@@H]1CCCN1C(=O)[C@H](C)NC(=O)[C@@H]1CCCN1C(C)=O`, the inhibition result is “inactive”.

Regarding `CCOC(=O)[C@H](C)OC(=O)N(C)NC(=O)[C@@H]1CCCN1C(=O)[C@H](C)NC(=O)[C@@H]1CCCN1C(C)=O`, the ID50 was determined as 6 µg/mL (≈ 12.1 µM).

`CCOC(=O)[C@H](C)OC(=O)N(C)NC(=O)[C@H](C)NC(C)=O`: the inhibition entry is “inactive”.

Consider `CCOC(=O)NNC(=O)[C@@H]1CCCN1C(=O)[C@H](C)NC(=O)[C@H](C)NC(C)=O`, for which the inhibition entry is “inactive”.

For `CCOC(=O)N(C)NC(=O)[C@@H]1CCCN1C(=O)[C@H](C)NC(=O)[C@H](C)NC(=O)OCc1ccccc1`, the ID50 amounted to 30 µg/mL (≈ 61 µM).

For `CCOC(=O)[C@H](C)OC(=O)[C@H](C)NC(=O)[C@@H]1CCCN1C(=O)[C@H](C)NC(=O)[C@@H]1CCCN1C(C)=O` (Ac-PAPA[Lac]-OEt), the inhibition entry is “inactive”.

Take `CCOC(=O)[C@H](Cc1ccccc1)OC(=O)N(C)NC(=O)[C@@H]1CCCN1C(=O)[C@H](C)NC(=O)[C@H](C)NC(C)=O`: the ID50 turned out to be 2 µg/mL (≈ 3.65 µM).

Regarding `CC(=O)N[C@@H](C)C(=O)N[C@@H](C)C(=O)N1CCC[C@H]1C(=O)NN(C)C(=O)O[C@@H](C)C(=O)NN`, the ID50 worked out at 0.25 µg/mL (≈ 0.546 µM).

Take `CCOC(=O)[C@H](C)OC(=O)[C@H](C)NC(=O)[C@@H]1CCCN1C(=O)[C@H](C)NC(=O)[C@H](C)NC(C)=O` (Ac-AAPA[Lac]-OEt): the ID50 was determined as 167 µg/mL (≈ 355 µM).

Regarding `CC(=O)N[C@@H](C)C(=O)N[C@@H](C)C(=O)N1CCC[C@H]1C(=O)NN(C)C(=O)O[C@@H](C)C(=O)N(C)N`, the ID50 is 2 µg/mL (≈ 4.24 µM).

The values are drawn from ChEMBL document CHEMBL3272312, “Proteinase inhibitors. I. Inhibitors of elastase” (J Med Chem, 1977).
